Reference: US10105357B2, “Indication of antibiotic drugs for preparation of cancer inhibition pharmaceutical composition” (LAUNX BIOMEDICAL CO., LTD., priority 2014, dated 2018)
Structures can show the parent of a compound that is named as a salt. Where two headings read alike, the source gives them in different places.

Legend:
Assay type in all cases: cell-based, human
[1] = tested on: HI650 (Lung Adenocarcinoma); test: Cell viability analysis, lung cancer HI650; conditions: for cell viability (survival rate), H1650 / viability at 10 µM: drug 10 μM, 72 hours, WST-1, OD450 nm; for viability at 10 µM: Homo sapiens, NCI-H1650, 72 h, read-out: cell viability (survival rate), H1650
[2] = tested on: MKN-45 (Gastric Adenocarcinoma); test: Cell viability analysis, gastric cancer MKN-45; conditions: for viability at 10 µM: Homo sapiens, MKN-45, 72 h, read-out: cell viability (survival rate), MKN-45
[3] = tested on: TSGH-8301 (Urinary Bladder Carcinoma); test: Cell viability analysis, bladder cancer TSGH-8301; conditions: for cell viability (survival rate), TSGH / viability at 10 µM: drug 10 μM, 72 hours, WST-1, OD450 nm; for viability at 10 µM: Homo sapiens, 72 h, read-out: cell viability (survival rate), TSGH
[4] = tested on: NIH: OVCAR-3; test: Cell viability analysis, ovarian cancer NIH: OVCAR-3
[5] = tested on: BxPC-3; test: Cell viability analysis, pancreatic cancer BxPC-3
[6] = tested on: T24; test: Cell viability analysis, bladder cancer T24
[7] = tested on: LoVo (Colorectal Adenocarcinoma); test: Cell viability analysis, colon cancer LoVo; conditions: for cell viability (survival rate), LoVo: drug 10 μM, 72 hours, WST-1, OD450 nm; for viability at 10 µM: Homo sapiens, 72 h, read-out: cell viability (survival rate), LoVo, drug 10 μM, 72 hours, WST-1, OD450 nm
[8] = tested on: TOV-21G; test: Cell viability analysis, ovarian cancer TOV-21G
[9] = tested on: PC3 (p53−) (Prostate Adenocarcinoma); test: Cell viability analysis, prostate cancer PC3; conditions: for viability at 10 µM: Homo sapiens, 72 h, drug 10 μM, 72 hours, WST-1, OD450 nm, read-out: cell viability (survival rate), PC3
[10] = tested on: C-33A (Cervical carcinoma); test: Cell viability analysis, cervical cancer C-33A
[11] = tested on: U-2OS; test: Cell viability analysis, osteosarcoma U-2OS
[12] = tested on: 786-O (Renal adenocarcinoma); test: Cell viability analysis, renal cancer 786-O
[13] = tested on: MDA-MB-231 (Mammary Gland, Adenocarcinoma); test: Cell viability analysis, breast cancer MDA-MB-231
[14] = tested on: MCF7 (Mammary Gland, Adenocarcinoma); test: Cell viability analysis, breast cancer MCF7; conditions: for viability at 10 µM: Homo sapiens, MCF7, 72 h, read-out: cell viability (survival rate), MCF7
[15] = tested on: AGS (Gastric Adenocarcinoma); test: Cell viability analysis, gastric cancer AGS; conditions: for cell viability (survival rate), AGS / viability at 10 µM: drug 10 μM, 72 hours, WST-1, OD450 nm; for viability at 10 µM: Homo sapiens, 72 h, read-out: cell viability (survival rate), AGS
[16] = tested on: cancer cell lines; test: Cell viability analysis (WST-1) on cancer cell lines; conditions: drug 10 μM, 72 hours, WST-1; Table 3
[17] = tested on: A549 (Lung Adenocarcinoma); test: Cell viability analysis, lung cancer A549; conditions: for cell viability (survival rate), A549 / viability at 10 µM: drug 10 μM, 72 hours, WST-1, OD450 nm; for viability at 10 µM: Homo sapiens, A549, 72 h, read-out: cell viability (survival rate), A549
[18] = tested on: HeLa (Cervix Adenocarcinoma); test: Cell viability analysis, cervical cancer HeLa; conditions: for cell viability (survival rate), HeLa / viability at 10 µM: drug 10 μM, 72 hours, WST-1, OD450 nm; for viability at 10 µM: Homo sapiens, 72 h, read-out: cell viability (survival rate), HeLa
[19] = tested on: A375 (Amelanotic Melanoma); test: Cell viability analysis, skin cancer A375; conditions: for viability at 10 µM: Homo sapiens, A-375, 72 h, read-out: cell viability (survival rate), A375
[20] = tested on: BCC (basal cell carcinoma); test: Cell viability analysis, skin cancer BCC
[21] = tested on: AsPC-1; test: Cell viability analysis, pancreatic cancer AsPC-1
[22] = tested on: HepG2 (Hepatocellular Carcinoma); test: Cell viability analysis, hepatic cancer HepG2; conditions: for viability at 10 µM: Homo sapiens, HepG2, 72 h, drug 10 μM, 72 hours, WST-1, OD450 nm, read-out: cell viability (survival rate), HepG2
[23] = tested on: SAS (Tongue squamous cell carcinoma); test: Cell viability analysis, tongue cancer SAS
[24] = tested on: HL-60 (Acute Promyelocytic Leukemia); test: Cell viability analysis, leukemia HL-60; conditions: drug 10 μM, 72 hours, WST-1, OD450 nm; for viability at 10 µM: Homo sapiens, HL-60, 72 h, read-out: cell viability (survival rate), HL-60
[25] = drug 10 μM, 72 hours, WST-1, OD450 nm

Colistimethate Sodium
The results of antibiotic drug inhibiting cancer cell lines (cell viability analysis), H1650 [1]: 82.62
The results of antibiotic drug inhibiting cancer cell lines (cell viability analysis), MKN-45 [2]: 104.8
The results of antibiotic drug inhibiting cancer cell lines (cell viability analysis), TSGH-8301 [3]: 111.7
The results of antibiotic drug inhibiting cancer cell lines (cell viability analysis), NIH-OVCAR-3 [4]: 103.4
The results of antibiotic drug inhibiting cancer cell lines (cell viability analysis), BxPC-3 [5]: 76.87
The results of antibiotic drug inhibiting cancer cell lines (cell viability analysis), T24 [6]: 108.3
The results of antibiotic drug inhibiting cancer cell lines (cell viability analysis), LoVo [7]: 85.06
The results of antibiotic drug inhibiting cancer cell lines (cell viability analysis), TOV-21G [8]: 64.02
The results of antibiotic drug inhibiting cancer cell lines (cell viability analysis), PC-3 [9]: 101.1
The results of antibiotic drug inhibiting cancer cell lines (cell viability analysis), C-33A [10]: 107.5
The results of antibiotic drug inhibiting cancer cell lines (cell viability analysis), U2OS [11]: 83.33
The results of antibiotic drug inhibiting cancer cell lines (cell viability analysis), 786-O [12]: 86.46
The results of antibiotic drug inhibiting cancer cell lines (cell viability analysis), MDA-MB231 [13]: 76.75
The results of antibiotic drug inhibiting cancer cell lines (cell viability analysis), MCF-7 [14]: 74.61
The results of antibiotic drug inhibiting cancer cell lines (cell viability analysis), AGS [15]: 87.05
inhibition effect on different cancer cell lines [16]: significant inhibition effect
The results of antibiotic drug inhibiting cancer cell lines (cell viability analysis), A549 [17]: 89.46
The results of antibiotic drug inhibiting cancer cell lines (cell viability analysis), HeLa [18]: 77.79
The results of antibiotic drug inhibiting cancer cell lines (cell viability analysis), A375 [19]: 94.89
The results of antibiotic drug inhibiting cancer cell lines (cell viability analysis), BCC [20]: 77.04
The results of antibiotic drug inhibiting cancer cell lines (cell viability analysis), AsPC-1 [21]: 82.31
The results of antibiotic drug inhibiting cancer cell lines (cell viability analysis), HepG2 [22]: 107.4
The results of antibiotic drug inhibiting cancer cell lines (cell viability analysis), SAS [23]: 77.78

CCCCCCCCCCCCCCCC[N+](C)(C)C.[Br-] [Cetrimonium Bromide]
cell viability (survival rate), H1650 [1]: 54.6
The results of antibiotic drug inhibiting cancer cell lines (cell viability analysis), MKN-45 ([2]; MKN-45, repeated experiment): 35.25
The results of antibiotic drug inhibiting cancer cell lines (cell viability analysis), TSGH-8301 ([3]; TSGH-8301, repeated experiment): 22.33
cell viability (survival rate), TSGH [3]: 34.8
The results of antibiotic drug inhibiting cancer cell lines (cell viability analysis), NIH-OVCAR-3 ([4]; NIH-OVCAR-3, repeated experiment): 56.47
The results of antibiotic drug inhibiting cancer cell lines (cell viability analysis), BxPC-3 ([5]; BxPC-3, repeated experiment): 25.89
The results of antibiotic drug inhibiting cancer cell lines (cell viability analysis), T24 ([6]; T24, repeated experiment): 19.1
The results of antibiotic drug inhibiting cancer cell lines (cell viability analysis), LoVo ([7]; LoVo, repeated experiment): 51.72
cell viability (survival rate), LoVo [7]: 55.4
The results of antibiotic drug inhibiting cancer cell lines (cell viability analysis), TOV-21G ([8]; TOV-21G, repeated experiment): 15.69
The results of antibiotic drug inhibiting cancer cell lines (cell viability analysis), C-33A ([10]; C-33A, repeated experiment): 35.29
The results of antibiotic drug inhibiting cancer cell lines (cell viability analysis), 786-O ([12]; 786-O, repeated experiment): 16.85
The results of antibiotic drug inhibiting cancer cell lines (cell viability analysis), MDA-MB231 ([13]; MDA-MB231, repeated experiment): 33.73
The results of antibiotic drug inhibiting cancer cell lines (cell viability analysis), MCF-7 ([14]; MCF-7, repeated experiment): 47.47
The results of antibiotic drug inhibiting cancer cell lines (cell viability analysis), AGS ([15]; AGS, repeated experiment): 20.83
cell viability (survival rate), AGS [15]: 42.4
inhibition effect on different cancer cell lines [16]: significant inhibition effect
The results of antibiotic drug inhibiting cancer cell lines (cell viability analysis), A549 ([17]; A549, repeated experiment): 20.71
cell viability (survival rate), A549 [17]: 25.0
The results of antibiotic drug inhibiting cancer cell lines (cell viability analysis), HeLa ([18]; HeLa, repeated experiment): 20.73
cell viability (survival rate), HeLa [18]: 42.6
The results of antibiotic drug inhibiting cancer cell lines (cell viability analysis), A375 ([19]; A375, repeated experiment): 12.93
The results of antibiotic drug inhibiting cancer cell lines (cell viability analysis), BCC ([20]; BCC, repeated experiment): 23.59
The results of antibiotic drug inhibiting cancer cell lines (cell viability analysis), HepG2 ([22]; HepG2, repeated experiment): 56.6
The results of antibiotic drug inhibiting cancer cell lines (cell viability analysis), SAS ([23]; SAS, repeated experiment): 21.73

C[C@@H]1[C@H](O)[C@@H](C)/C=C/C=C/CC/C=C/C=C/C=C/C=C/C(O[C@H]2O[C@H](C)[C@@H](O)[C@H](N)[C@@H]2O)CC2O[C@](O)(CC(O)C(O)CCC(O)CC(O)CC(O)CC(=O)O[C@H]1C)CC(O)C2C(=O)O (stereo partly shown) [Nystatin (Mycostatin), Nystatin]
The results of antibiotic drug inhibiting cancer cell lines (cell viability analysis), H1650 ([1]; H1650, repeated experiment): 72.42
cell viability (survival rate), H1650 [1]: 65.4
The results of antibiotic drug inhibiting cancer cell lines (cell viability analysis), MKN-45 ([2]; MKN-45, repeated experiment): 95.89
cell viability (survival rate), MKN-45 [2, 25]: 44.7
The results of antibiotic drug inhibiting cancer cell lines (cell viability analysis), TSGH-8301 ([3]; TSGH-8301, repeated experiment): 91.24
cell viability (survival rate), TSGH [3]: 42.1
cell viability (survival rate), HL-60 [24]: 96.2
The results of antibiotic drug inhibiting cancer cell lines (cell viability analysis), BxPC-3 ([5]; BxPC-3, repeated experiment): 69.94
The results of antibiotic drug inhibiting cancer cell lines (cell viability analysis), T24 ([6]; T24, repeated experiment): 76.44
cell viability (survival rate), LoVo [7]: 70.9
The results of antibiotic drug inhibiting cancer cell lines (cell viability analysis), TOV-21G ([8]; TOV-21G, repeated experiment): 74.99
The results of antibiotic drug inhibiting cancer cell lines (cell viability analysis), U2OS ([11]; U2OS, repeated experiment): 76.11
The results of antibiotic drug inhibiting cancer cell lines (cell viability analysis), 786-O ([12]; 786-O, repeated experiment): 89.48
The results of antibiotic drug inhibiting cancer cell lines (cell viability analysis), MDA-MB231 ([13]; MDA-MB231, repeated experiment): 86.09
The results of antibiotic drug inhibiting cancer cell lines (cell viability analysis), MCF-7 ([14]; MCF-7, repeated experiment): 89.88
cell viability (survival rate), MCF7 [14, 25]: 46.4
cell viability (survival rate), AGS [15]: 50.8
inhibition effect on different cancer cell lines [16]: significant inhibition effect
The results of antibiotic drug inhibiting cancer cell lines (cell viability analysis), A549 ([17]; A549, repeated experiment): 94.3
cell viability (survival rate), A549 [17]: 37.1
cell viability (survival rate), HeLa [18]: 59.2
The results of antibiotic drug inhibiting cancer cell lines (cell viability analysis), A375 ([19]; A375, repeated experiment): 99.37
cell viability (survival rate), A375 [19, 25]: 62.4
The results of antibiotic drug inhibiting cancer cell lines (cell viability analysis), BCC ([20]; BCC, repeated experiment): 92.4
The results of antibiotic drug inhibiting cancer cell lines (cell viability analysis), AsPC-1 ([21]; AsPC-1, repeated experiment): 75.83
The results of antibiotic drug inhibiting cancer cell lines (cell viability analysis), SAS ([23]; SAS, repeated experiment): 97.09

CC(N)C12CC3CC(CC(C3)C1)C2 (stereo not shown) [Rimantadine (Flumadine), Rimantadine]
viability at 10 µM [1]: 96.9%
viability at 10 µM [2, 25]: 82.3%
viability at 10 µM [3]: 126%
viability at 10 µM [24]: 107%
viability at 10 µM ([7]; LoVo): 95.7%
viability at 10 µM [9]: 91.3%
viability at 10 µM [14, 25]: 97.1%
viability at 10 µM [15]: 90.8%
inhibition effect on different cancer cell lines [16]: significant inhibition effect
viability at 10 µM [17]: 111%
viability at 10 µM ([18]; HeLa): 71.1%
viability at 10 µM [19, 25]: 70.3%
viability at 10 µM [22]: 87.7%

CC(C)[C@H](N)C(=O)OCCOCn1cnc2c(=O)[nH]c(N)nc21 [Valaciclovir HCl]
viability at 10 µM [1]: 90.6%
viability at 10 µM [2, 25]: 91.6%
viability at 10 µM [3]: 83.9%
viability at 10 µM [24]: 103%
viability at 10 µM ([7]; LoVo): 97%
viability at 10 µM [9]: 68.3%
viability at 10 µM [14, 25]: 67.8%
viability at 10 µM [15]: 110%
inhibition effect on different cancer cell lines [16]: significant inhibition effect
viability at 10 µM [17]: 126%
viability at 10 µM ([18]; HeLa): 109%
viability at 10 µM [19, 25]: 95.6%
viability at 10 µM [22]: 110%
